According to US11427558B1, “Indazoles and azaindazoles as LRRK2 inhibitors” (ESCAPE Bio, Inc., priority 2019, dated 2022):

Assays:
[1] = target: Recombinant wild type LRRK2 protein (Homo sapiens (Human), UniProt Q5S007); test: LRRK2 kinase activity, LanthaScreen TR-FRET assay (wild type); type: biochemical; conditions: LRRKtide 400 nM, 25 μM ATP, 60 min; read-out: LRRK2 WT IC50
Outline: (§1)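 Recombinant human wild-type or G2019S LRRK2 phosphorylated fluorescein-labelled LRRKtide (ERM-based) with ATP and serially diluted compound for 60 min at room temperature.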

[2] = target: Recombinant G2019S-LRRK2 protein (Homo sapiens (Human), UniProt Q5S007, G2019S); test: LRRK2 kinase activity, LanthaScreen TR-FRET assay (G2019S); type: biochemical; conditions: LRRKtide 400 nM, 25 μM ATP, 60 min
Recombinant G2019S-LRRK2 protein, sequence (Q5S007 whole entry G2019S): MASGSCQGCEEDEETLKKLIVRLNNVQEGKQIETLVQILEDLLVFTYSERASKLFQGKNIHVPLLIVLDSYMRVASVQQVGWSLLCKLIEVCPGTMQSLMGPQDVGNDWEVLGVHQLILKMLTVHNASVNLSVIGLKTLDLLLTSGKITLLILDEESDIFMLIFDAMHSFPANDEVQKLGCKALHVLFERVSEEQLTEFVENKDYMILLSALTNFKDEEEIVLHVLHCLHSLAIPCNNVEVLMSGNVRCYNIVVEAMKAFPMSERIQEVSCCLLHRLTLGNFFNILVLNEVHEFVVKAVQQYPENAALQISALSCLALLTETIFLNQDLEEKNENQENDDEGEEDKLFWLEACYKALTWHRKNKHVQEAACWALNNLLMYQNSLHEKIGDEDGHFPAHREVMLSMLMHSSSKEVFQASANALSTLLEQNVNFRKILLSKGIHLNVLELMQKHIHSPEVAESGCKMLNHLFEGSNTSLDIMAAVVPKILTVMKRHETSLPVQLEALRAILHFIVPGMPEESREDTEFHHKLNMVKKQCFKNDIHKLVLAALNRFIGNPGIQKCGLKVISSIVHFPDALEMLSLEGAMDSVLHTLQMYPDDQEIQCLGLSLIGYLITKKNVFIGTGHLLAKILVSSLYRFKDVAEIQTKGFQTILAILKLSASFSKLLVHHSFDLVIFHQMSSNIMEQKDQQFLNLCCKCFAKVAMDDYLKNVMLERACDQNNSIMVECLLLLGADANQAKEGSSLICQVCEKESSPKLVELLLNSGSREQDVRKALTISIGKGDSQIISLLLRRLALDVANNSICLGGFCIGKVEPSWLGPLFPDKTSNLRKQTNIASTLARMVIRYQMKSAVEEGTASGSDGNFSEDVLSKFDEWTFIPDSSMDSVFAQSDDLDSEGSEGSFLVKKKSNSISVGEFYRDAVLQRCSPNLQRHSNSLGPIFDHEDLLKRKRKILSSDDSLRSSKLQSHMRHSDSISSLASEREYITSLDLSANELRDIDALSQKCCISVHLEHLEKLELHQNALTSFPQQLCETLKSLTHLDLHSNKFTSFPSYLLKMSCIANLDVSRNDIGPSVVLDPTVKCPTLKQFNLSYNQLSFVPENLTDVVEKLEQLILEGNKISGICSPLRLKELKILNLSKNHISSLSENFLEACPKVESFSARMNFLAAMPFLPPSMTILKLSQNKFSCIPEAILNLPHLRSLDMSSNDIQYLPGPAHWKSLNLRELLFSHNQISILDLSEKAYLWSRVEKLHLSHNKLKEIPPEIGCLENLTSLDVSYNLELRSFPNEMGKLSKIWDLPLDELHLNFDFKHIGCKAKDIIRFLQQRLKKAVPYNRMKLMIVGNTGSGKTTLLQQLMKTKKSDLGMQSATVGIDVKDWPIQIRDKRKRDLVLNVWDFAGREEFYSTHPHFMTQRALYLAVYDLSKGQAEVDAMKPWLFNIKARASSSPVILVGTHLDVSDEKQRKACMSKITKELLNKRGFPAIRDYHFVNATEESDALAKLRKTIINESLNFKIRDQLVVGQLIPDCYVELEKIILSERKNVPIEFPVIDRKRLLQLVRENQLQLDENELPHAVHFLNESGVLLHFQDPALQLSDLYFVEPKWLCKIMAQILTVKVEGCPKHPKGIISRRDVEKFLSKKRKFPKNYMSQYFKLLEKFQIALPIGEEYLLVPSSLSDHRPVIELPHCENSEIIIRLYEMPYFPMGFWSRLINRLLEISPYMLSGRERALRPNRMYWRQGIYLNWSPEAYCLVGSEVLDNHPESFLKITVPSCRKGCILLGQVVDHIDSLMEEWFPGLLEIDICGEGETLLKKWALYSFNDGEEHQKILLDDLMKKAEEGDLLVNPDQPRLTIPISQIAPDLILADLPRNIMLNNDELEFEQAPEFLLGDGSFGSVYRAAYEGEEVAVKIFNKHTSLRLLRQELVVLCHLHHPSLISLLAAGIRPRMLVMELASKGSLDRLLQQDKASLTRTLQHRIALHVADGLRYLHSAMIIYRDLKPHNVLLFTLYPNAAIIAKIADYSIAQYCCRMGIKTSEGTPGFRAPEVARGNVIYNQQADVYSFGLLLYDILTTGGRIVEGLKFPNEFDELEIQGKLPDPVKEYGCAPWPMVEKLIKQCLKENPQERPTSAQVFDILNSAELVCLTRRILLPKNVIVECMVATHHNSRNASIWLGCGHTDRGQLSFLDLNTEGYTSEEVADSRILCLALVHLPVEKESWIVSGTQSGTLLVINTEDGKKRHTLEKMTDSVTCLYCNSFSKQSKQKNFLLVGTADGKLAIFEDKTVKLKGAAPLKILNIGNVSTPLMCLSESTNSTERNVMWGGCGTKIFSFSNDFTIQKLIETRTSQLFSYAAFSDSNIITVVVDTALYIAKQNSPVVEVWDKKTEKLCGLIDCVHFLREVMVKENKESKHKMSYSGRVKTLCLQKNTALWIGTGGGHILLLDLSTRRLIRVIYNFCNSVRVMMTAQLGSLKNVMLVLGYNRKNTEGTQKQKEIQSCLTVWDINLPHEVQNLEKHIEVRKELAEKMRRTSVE
Outline: as §1

Recombinant wild type LRRK2 protein, sequence (Q5S007 whole entry): as the sequence (Q5S007 whole entry G2019S) above, with S2019G counted along it

Structure (SMILES)	IC50 [1] [nM]	IC50 [2] [nM]
Cc1c(C(=O)Nc2ccc3[nH]nc(-c4ccccc4)c3c2)nc(C#N)n1C [Example 104, 2-Cyano-1,5-dimethyl-N-(3-phenyl-1H-indazol-5-yl)-1H-imidazole-4-carboxamide]	100 to 1000	100 to 1000
Cc1cc(C#N)cnc1C(=O)Nc1ccc2[nH]nc(Br)c2c1 [Example 106, N-(3-Bromo-1H-indazol-5-yl)-5-cyano-3-methylpicolinamide]	1000 to 10000	< 100
N#Cc1ccc(C(=O)Nc2ccc3[nH]nc(-c4ccoc4)c3c2)c(O)c1 [Example 107, 4-Cyano-N-(3-(furan-3-yl)-1H-indazol-5-yl)-2-hydroxybenzamide]	100 to 1000	100 to 1000
Cc1cc(C#N)cnc1C(=O)Nc1ccc2[nH]nc(-c3ccc(C(=O)N4CCOCC4)cc3)c2c1 [Example 108, 5-Cyano-3-methyl-N-(3-(4-(morpholine-4-carbonyl)phenyl)-1H-indazol-5-yl)picolinamide]	100 to 1000	< 100
Cc1cc(C#N)cnc1C(=O)Nc1ccc2[nH]nc(-c3cncc(OC(C)C)c3)c2c1 [Example 109, 5-Cyano-N-(3-(5-isopropoxypyridin-3-yl)-1H-indazol-5-yl)-3-methylpicolinamide]	100 to 1000	< 100
Cc1cc(C#N)cnc1C(=O)Nc1ccc2[nH]nc(-c3cncs3)c2c1 [Example 110, 5-Cyano-3-methyl-N-(3-(thiazol-5-yl)-1H-indazol-5-yl)picolinamide]	100 to 1000	< 100
Cc1cc(C#N)cnc1C(=O)Nc1ccc2[nH]nc(-c3cnco3)c2c1 [Example 111, 5-Cyano-3-methyl-N-(3-(oxazol-5-yl)-1H-indazol-5-yl)picolinamide]	100 to 1000	< 100
Cc1cccc(-c2n[nH]c3ccc(NC(=O)c4ncc(C#N)cc4C)cc23)n1 [Example 112, 5-Cyano-3-methyl-N-(3-(6-methylpyridin-2-yl)-1H-indazol-5-yl)picolinamide]	100 to 1000	100 to 1000
Cc1cc(C#N)cnc1C(=O)Nc1ccc2[nH]nc(-c3ccnc(C#N)c3)c2c1 [Example 113, 5-Cyano-N-(3-(2-cyanopyridin-4-yl)-1H-indazol-5-yl)-3-methylpicolinamide]	100 to 1000	< 100
Cc1cc(C#N)cnc1C(=O)Nc1ccc2[nH]nc(-c3ccccn3)c2c1 [Example 114, 5-Cyano-3-methyl-N-(3-(pyridin-2-yl)-1H-indazol-5-yl)picolinamide]	1000 to 10000	100 to 1000
Cc1cc(C#N)cnc1C(=O)Nc1ccc2[nH]nc(-c3ccnc(N4C[C@H](C)O[C@@H](C)C4)c3)c2c1 [Example 115, 5-Cyano-N-(3-(2-((2S,6S)-2,6-dimethylmorpholino)pyridin-4-yl)-1H-indazol-5-yl)-3-methylpicolinamide]	< 100	< 100
N#Cc1cnc(C(=O)Nc2ccc3[nH]nc(-c4ccoc4)c3c2)c2sccc12 [Example 116, 4-Cyano-N-(3-(furan-3-yl)-1H-indazol-5-yl)thieno[2,3-c]pyridine-7-carboxamide]	1000 to 10000	100 to 1000
Cc1cc(C#N)cnc1C(=O)Nc1ccc2[nH]nc(-c3ccnc(N4C[C@H](C)C[C@H](C)C4)c3)c2c1 [Example 117, 5-Cyano-N-(3-(2-((3R,5S)-3,5-dimethylpiperidin-1-yl)pyridin-4-yl)-1H-indazol-5-yl)-3-methylpicolinamide]	100 to 1000	< 100
Cc1cc(C#N)cnc1C(=O)Nc1ccc2[nH]nc(-c3ccnc(N4C[C@@H](C)O[C@@H](C)C4)c3)c2c1 [Example 118, 5-Cyano-N-(3-(2-((2S,6R)-2,6-dimethylmorpholino)pyridin-4-yl)-1H-indazol-5-yl)-3-methylpicolinamide]	< 100	< 100
Cc1cc(C#N)cnc1C(=O)Nc1ccc2[nH]nc(-c3cccc(N4C[C@@H](C)O[C@@H](C)C4)c3)c2c1 [Example 119, 5-Cyano-N-(3-(3-((2S,6R)-2,6-dimethylmorpholino)phenyl)-1H-indazol-5-yl)-3-methylpicolinamide]	100 to 1000	< 100
N#Cc1ccc(F)c(C(=O)Nc2ccc3[nH]nc(-c4ccoc4)c3c2)c1F [Example 120, 3-Cyano-2,6-difluoro-N-(3-(furan-3-yl)-1H-indazol-5-yl)benzamide]	< 100	< 100
Cc1cc(C#N)cnc1C(=O)Nc1ccc2[nH]nc(-c3cncc(Cl)c3)c2c1 [Example 121, N-(3-(5-Chloropyridin-3-yl)-1H-indazol-5-yl)-5-cyano-3-methylpicolinamide]	100 to 1000	< 100
N#Cc1ccc(F)c(C(=O)Nc2ccc3[nH]nc(-c4ccoc4)c3c2)c1 [Example 122, 5-Cyano-2-fluoro-N-(3-(furan-3-yl)-1H-indazol-5-yl)benzamide]	< 100	< 100
Cc1cc(C#N)cnc1C(=O)Nc1ccc2[nH]nc(-c3cnn(C)c3C)c2c1 [Example 123, 5-Cyano-N-(3-(1,5-dimethyl-1H-pyrazol-4-yl)-1H-indazol-5-yl)-3-methylpicolinamide]	100 to 1000	< 100

Structure (SMILES)	IC50 [1] [nM]	IC50 [2] [nM]
Cn1cc(C#N)nc1C(=O)Nc1ccc2[nH]nc(-c3ccoc3)c2c1 [Example 124, 4-Cyano-N-(3-(furan-3-yl)-1H-indazol-5-yl)-1-methyl-1H-imidazole-2-carboxamide]	< 100	< 100
N#Cc1ccc(O)c(C(=O)Nc2ccc3[nH]nc(-c4ccoc4)c3c2)c1 [Example 125, 5-Cyano-N-(3-(furan-3-yl)-1H-indazol-5-yl)-2-hydroxybenzamide]	100 to 1000	100 to 1000
Cc1cc(C#N)cnc1C(=O)Nc1ccc2[nH]nc(-n3ccnc3)c2c1 [Example 126, N-(3-(1H-Imidazol-1-yl)-1H-indazol-5-yl)-5-cyano-3-methylpicolinamide]	100 to 1000	< 100
N#Cc1cccc(C(=O)Nc2ccc3[nH]nc(-c4ccoc4)c3c2)n1 [Example 127, 6-Cyano-N-(3-(furan-3-yl)-1H-indazol-5-yl)picolinamide]	< 100	< 100
Cc1ccc(C#N)c(F)c1C(=O)Nc1ccc2[nH]nc(-c3ccoc3)c2c1 [Example 128, 3-Cyano-2-fluoro-N-(3-(furan-3-yl)-1H-indazol-5-yl)-6-methylbenzamide]	< 100	< 100
Cc1ncc(-c2n[nH]c3ccc(NC(=O)c4ncc(C#N)cc4C)cc23)o1 [Example 129, 5-Cyano-3-methyl-N-(3-(2-methyloxazol-5-yl)-1H-indazol-5-yl)picolinamide]	< 100	< 100
Cc1cc(C#N)cnc1C(=O)Nc1ccc2[nH]nc(-c3cc(C#N)cs3)c2c1 [Example 130, 5-Cyano-N-(3-(4-cyanothiophen-2-yl)-1H-indazol-5-yl)-3-methylpicolinamide]	< 100	< 100
Cc1cc(C#N)cnc1C(=O)Nc1ccc2[nH]nc(-c3ccc(C#N)s3)c2c1 [Example 131, 5-Cyano-N-(3-(5-cyanothiophen-2-yl)-1H-indazol-5-yl)-3-methylpicolinamide]	100 to 1000	< 100
N#Cc1ccnc(C(=O)Nc2ccc3[nH]nc(-c4ccoc4)c3c2)n1 [Example 132, 4-Cyano-N-(3-(furan-3-yl)-1H-indazol-5-yl)pyrimidine-2-carboxamide]	< 100	< 100
Cc1c(C(=O)Nc2ccc3[nH]nc(-c4ccoc4)c3c2)n[nH]c1C#N [Example 133, 5-Cyano-N-(3-(furan-3-yl)-1H-indazol-5-yl)-4-methyl-1H-pyrazole-3-carboxamide]	100 to 1000	< 100
Cc1c(C#N)ccc(F)c1C(=O)Nc1ccc2[nH]nc(-c3ccoc3)c2c1 [Example 134, 3-Cyano-6-fluoro-N-(3-(furan-3-yl)-1H-indazol-5-yl)-2-methylbenzamide]	< 100	< 100
Cc1cc(C#N)cnc1C(=O)Nc1ccc2[nH]nc(NC(=O)c3ccccc3)c2c1 [Example 135, N-(3-Benzamido-1H-indazol-5-yl)-5-cyano-3-methylpicolinamide]	1000 to 10000	100 to 1000
Cc1cc(C#N)cnc1C(=O)Nc1ccc2[nH]nc(-n3cccn3)c2c1 [Example 136, N-(3-(1H-Pyrazol-1-yl)-1H-indazol-5-yl)-5-cyano-3-methylpicolinamide]	1000 to 10000	100 to 1000
Cc1n[nH]c(C#N)c1C(=O)Nc1ccc2[nH]nc(-c3ccoc3)c2c1 [Example 137, 5-Cyano-N-(3-(furan-3-yl)-1H-indazol-5-yl)-3-methyl-1H-pyrazole-4-carboxamide]	< 100	< 100
N#Cc1cnc(C(=O)Nc2ccc3[nH]nc(-c4ccoc4)c3c2)c(Br)c1 [Example 138, 3-Bromo-5-cyano-N-(3-(furan-3-yl)-1H-indazol-5-yl)picolinamide]	< 100	< 100
Cc1cc(C#N)cnc1C(=O)Nc1ccc2[nH]nc(-c3ccc(Cl)s3)c2c1 [Example 139, N-(3-(5-Chlorothiophen-2-yl)-1H-indazol-5-yl)-5-cyano-3-methylpicolinamide]	1000 to 10000	< 100
Cc1ncc(-c2n[nH]c3ccc(NC(=O)c4ncc(C#N)cc4C)cc23)s1 [Example 140, 5-Cyano-3-methyl-N-(3-(2-methylthiazol-5-yl)-1H-indazol-5-yl)picolinamide]	< 100	< 100
Cc1ccc(-c2n[nH]c3ccc(NC(=O)c4ncc(C#N)cc4C)cc23)o1 [Example 141, 5-Cyano-3-methyl-N-(3-(5-methylfuran-2-yl)-1H-indazol-5-yl)picolinamide]	< 100	< 100
N#Cc1ccc(C(=O)Nc2ccc3[nH]nc(-c4ccoc4)c3c2)c2ncccc12 [Example 142, 5-Cyano-N-(3-(furan-3-yl)-1H-indazol-5-yl)quinoline-8-carboxamide]	100 to 1000	< 100
